# Read-outs that look alike come from different tables or passages of the source.
# What was measured:
# Format in all cases: cell-based
# [1] = target: T1, CNR2 (also known as CB2) (Homo sapiens, UniProt P34972); experiment: β-arrestin GPCR assay (PathHunter), CNR2; set-up: β-galactosidase enzyme fragment (complementation partner); conditions: β-arrestin recruitment
# [2] = target: T2, CNR1 (also known as CB1) (Homo sapiens, UniProt P21554); set-up: β-galactosidase enzyme fragment (complementation partner); conditions: read-out: CNR1 β-Arrestin EC50
# [3] = target: T2, CNR1 (also known as CB1); conditions: read-out: CNR1 cAMP EC50
# [4] = target: T1, CNR2 (also known as CB2); experiment: cAMP competitive inhibition immunoassay (HitHunter), CNR2; conditions: cAMP assay
# T1 sequence (P34972 whole entry, the tested form may be a part): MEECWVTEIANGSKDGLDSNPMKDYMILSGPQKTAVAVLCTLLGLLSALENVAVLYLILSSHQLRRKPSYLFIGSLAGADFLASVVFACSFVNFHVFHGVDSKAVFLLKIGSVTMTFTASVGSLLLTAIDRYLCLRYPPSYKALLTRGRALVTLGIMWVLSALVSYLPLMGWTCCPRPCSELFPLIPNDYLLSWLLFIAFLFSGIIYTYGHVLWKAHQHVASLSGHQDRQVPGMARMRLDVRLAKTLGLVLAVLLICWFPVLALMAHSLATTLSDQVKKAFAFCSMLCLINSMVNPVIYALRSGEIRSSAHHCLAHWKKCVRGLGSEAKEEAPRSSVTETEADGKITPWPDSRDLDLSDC
# T2 sequence (P21554 whole entry, the tested form may be a part): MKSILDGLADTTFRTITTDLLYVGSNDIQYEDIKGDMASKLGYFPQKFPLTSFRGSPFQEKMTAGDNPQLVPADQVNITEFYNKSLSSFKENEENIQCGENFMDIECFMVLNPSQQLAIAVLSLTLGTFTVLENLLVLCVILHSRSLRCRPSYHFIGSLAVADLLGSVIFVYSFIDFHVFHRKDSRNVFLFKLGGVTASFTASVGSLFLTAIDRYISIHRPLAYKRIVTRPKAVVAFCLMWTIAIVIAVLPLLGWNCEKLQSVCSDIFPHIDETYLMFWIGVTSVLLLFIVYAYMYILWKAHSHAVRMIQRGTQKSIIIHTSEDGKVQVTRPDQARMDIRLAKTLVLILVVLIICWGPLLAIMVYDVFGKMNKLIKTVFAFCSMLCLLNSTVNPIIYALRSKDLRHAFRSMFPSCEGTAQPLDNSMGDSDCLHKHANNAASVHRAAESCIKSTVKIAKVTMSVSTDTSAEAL
smiles,measurement,setting,value
CCCCCc1cc(O)c2c(c1)OC(C)(C)[C@@H]1CCC(CO)=C[C@@H]21 [Example 11-OH-THC],EC50,[1],> 16700 nM
same,EC50,[2],> 16700 nM
same,EC50,[3],10.8 nM
same,EC50,[4],571 nM
